Literature values in EP4778926A1, “DEUTERATED DIARYL GLYCOLURIL TETRAMER COMPOUND AND USE THEREOF” (Shanghai Institute of Organic Chemistry, Chinese Academy of …, priority 2023, dated 2025).
Like-named read-outs stand apart in the source and are kept apart here.

What was measured:
[1] = for TOF→0.9 time, Average value: rats, Vecuronium Bromide (0.7 mg/kg), from literature (Liu et al.)
[2] = for TOF→0.9 time, Average time: rats, Rocuronium bromide (3.5 mg/kg), from literature (Liu et al.)
[3] = rats; pancuronium bromide (0.5 mg/kg); neostigmine 0.24 mg/kg; from literature (Liu et al.)
[4] = rats; Cisatracurium Besylate (0.6 mg/kg); neostigmine 0.24 mg/kg; from literature (Liu et al.)

Row | Compound | TOF→0.9 time, Average value ([1]; Sugammadex Sodium 25 mg/kg) [s] | time that TOF recovered to 0.9 ([1]; vecuronium bromide, sugammadex sodium at the same dose (25 mg/kg), literature data) [s] | TOF→0.9 time, Average time ([2]; Sugammadex Sodium 25 mg/kg) [s] | time that TOF recovered to 0.9 ([2]; rocuronium bromide, sugammadex sodium at the same dose (25 mg/kg), literature data) [s] | TOF→0.9 time, Average value ([1]; neostigmine 0.24 mg/kg) [s] | TOF→0.9 time, Average value [3] [s] | TOF→0.9 time, Average time ([2]; neostigmine 0.24 mg/kg) [s] | TOF→0.9 time, Average time [4] [s]
1 | O=C([O-])CCSC[C@H]1O[C@@H]2O[C@H]3[C@H](O)[C@@H](O)[C@@H](O[C@H]4[C@H](O)[C@@H](O)[C@@H](O[C@H]5[C@H](O)[C@@H](O)[C@@H](O[C@H]6[C@H](O)[C@@H](O)[C@@H](O[C@H]7[C@H](O)[C@@H](O)[C@@H](O[C@H]8[C@H](O)[C@@H](O)[C@@H](O[C@H]9[C@H](O)C(O)[C@@H](O[C@H]1[C@H](O)[C@H]2O)O[C@@H]9CSCCC(=O)[O-])O[C@@H]8CSCCC(=O)[O-])O[C@@H]7CSCCC(=O)[O-])O[C@@H]6CSCCC(=O)[O-])O[C@@H]5CSCCC(=O)[O-])O[C@@H]4CSCCC(=O)[O-])O[C@@H]3CSCCC(=O)[O-].[Na+].[Na+].[Na+].[Na+].[Na+].[Na+].[Na+].[Na+] (some centres unmarked) [Sugammadex Sodium] | 18 | 18 | 52 | 52 |  |  |  | 
2 | CN(C)C(=O)Oc1cccc([N+](C)(C)C)c1 [neostigmine] |  |  |  |  | 315 | 1371 | 363 | 210
